“Also recorded” adds a separate entry of the source.
Key:
[1] = 1HNMR spectroscopy of stability of betaine in water; format: physicochemical; details: 1% and 2% betaine in water, day 0, day 2 and day 8 (course of one week)
Source text: FIG. 2: ^1HNMR spectroscopy depicting stability of betaine in water during the course of 1 week. Three spectral lines on top indicating 2% betaine represent betaine concentration as determined by ^1HNMR spectroscopy at day 0, day, 2 and day 8. Below, three spectral lines indicating 1% betaine represent betaine concentration as determined by ^1HNMR spectroscopy at day 0, day, 2 and day 8. At the bottom, flat spectra can be seen for the animals receiving control water without betaine, indicated as control day 2 and 8. Overall, betaine was stable and non-significant changes in betaine concentration were observed during the course of one week.

[2] = test system: Pkd1^RC/RC mice; experiment: Intrarenal microvasculature quantified using a capillary index; format: in vivo; details: 6 months of age
Experimental: (§1) One month old Pkd1^RC/RC mice were divided into three groups and started treatment with regular water or regular water supplemented with 1% or 2% betaine (FIG. 2) for 5 months (n=16 per group). All mice were euthanized at 6 months of age, and kidneys harvested. Cystic index was determined from histological sections. 1H-NMR-based metabolomics analysis was performed from tissue urine and plasma samples.
Intrarenal microvasculature was quantified using a capillary index. Capillaries in the cortex were identified by the presence of lumen, red blood cells, and/or an endothelial cell lining. For the PKD animals, the number of capillaries is calculated adjusting for the cystic area.

[3] = test system: Pkd1^RC/RC mice; experiment: Blood pressure (MAP) by tail cuff, CODA non-invasive blood pressure system; format: in vivo; details: compared with wild type (WT) animals
Experimental: as §1
Blood pressure was determined during the same time frame (9-11 am) in all animals in all groups, using the CODA non-invasive blood pressure system (Kent Scientific). Briefly, mice were guided into a plastic mouse holder and were left to acclimate to the holder for 5 minutes. Ten blood pressure (BP) measurements within 10 minutes were obtained by tail cuff.

[4] = test system: Pkd1^RC/RC mice; experiment: Betaine supplementation in drinking water in Pkd1^RC/RC mice: kidney/body weight and cystic index from histological sections; format: in vivo; details: p<0.01; for kidney/body weight: euthanized at 6 months of age, no betaine 2.25; for cystic index (percentage of cyst area within the total kidney section): no betaine 21.1%
Experimental: as §1

[5] = 1H-NMR-based analysis of plasma and tissue betaine concentration after betaine supplementation; format: in vivo; details: Pkd1^RC/RC mice, vs no betaine, p<0.001; for tissue betaine concentration: kidney tissue
Experimental: as §1

[6] = 1% betaine in drinking water for 5 months
[7] = 2% betaine in drinking water for 5 months

## C[N+](C)(C)CC(=O)[O-] [betaine, trimethylglycine]
[1]
  stability of betaine in water (betaine concentration): stable
[2]; 1% betaine, female animals
  capillary count (intrarenal microvasculature): not effective
[2]; 1% betaine, male animals
  capillary count (intrarenal microvasculature): preserved the capillary count
[2]; 2% betaine, female animals
  capillary count (intrarenal microvasculature): preserved capillary count
[2]; 2% betaine, male animals
  capillary count (intrarenal microvasculature): preserved the capillary count
[3]; 1% betaine
  Mean Arterial Pressure (MAP): preserved MAP within WT levels
[3]; 2% betaine
  Mean Arterial Pressure (MAP): preserved MAP within WT levels
[4]; [6]
  kidney/body weight: 1.82
  cystic index (percentage of cyst area within the total kidney section): 11.1%
[4]; [7]
  kidney/body weight: 1.85
  cystic index (percentage of cyst area within the total kidney section): 9.4%
[5]; 1% betaine in drinking water
  tissue betaine concentration: significant increases; also recorded: increased
  plasma betaine concentration: increased
[5]; 2% betaine in drinking water
  tissue betaine concentration: significant increases; also recorded: increased
  plasma betaine concentration: increased
